From US12404301B2, “Polypeptide having anti-aging activity, and application thereof” (NANJING ANJI BIOLOGICAL TECHNOLOGY CO., LTD., priority 2020, dated 2025)

System: Wild-type Caenorhabditis elegans
Assay: Experiment on the lifespan of Caenorhabditis elegans
Assay type: in vivo
Conditions: for longest lifespan of the nematodes / Median survival time (time to half death) / day when death occurs compared with the control group / time to half death compared with the control group (significance) / longest lifespan, days longer than that of the control group / time to half death longer than in the control group: 10 nM; for Median survival time (time to half death): Kaplan-Meier, Median ± SE; for day when death occurs compared with the control group / time to half death compared with the control group (significance): in words; for longest lifespan, days longer than that of the control group / time to half death longer than in the control group: vs control group
Procedure: Synchronization of Caenorhabditis elegans: The NGM plate with a moderate nematode density was selected. The larvae at the L4 stage were picked with a pick needle for about 20 in total and transferred into the blank NGM plate. After they developed into adults and laid the first batch of eggs, all the adults were picked out. About 12 hours later, the eggs hatched into larvae, to obtain the synchronized larvae at the L1 stage. Preliminary preparation for the experiment on the lifespan of Caenorhabditis elegans: The NGM was washed with 1 mL of M9 buffer. The resulting buffer containing the larvae at the L1 stage was collected into an EP tube, placed in a chromatographic cabinet at 4° C. for 5 min, and centrifuged at 1500× g/4° C. for 3 min. The supernatant was removed. After 100 μL of buffer was resuspended, the nematodes were counted under a microscope, and the nematodes were diluted to a concentration of 30 worms/10 μL. 10 μL of diluted nematodes were added into the NGM plate inoculated with E. coli OP50, and the nematodes were counted under the microscope to ensure that there were about 30 nematodes. The NGM plate was placed in a constant temperature incubator to culture. Experiment on the lifespan of Caenorhabditis elegans: After the nematodes at the L1 stage developed to the L4 stage, 100 μL of 15.6 μg/mL 5-FUDR was added for inhibition of Caenorhabditis elegans from oviposition. After the nematodes developed to adults, the dosing started, and the nematodes were divided into a control group and a 10 nM dose group, which was recorded as day 1 of the lifespan experiment. After that, the dosing was carried out every day, the numbers of nematodes that survived, died, and unexpectedly died were observed and recorded every day, and the status of the nematodes was observed and recorded, until the last nematode died. […] The dead nematodes need to be picked out of the plate. The E. coli OP50 needs to be added in time when exhausted. Kaplan-Meier statistical analysis was carried out on the data, and the data results were expressed as Median±SE. Compared with the control group, *P<0.05 represents a significant difference, and **P<0.01 represents a very significant difference.

## PTTKFAA [WD2]
  longest lifespan of the nematodes: 32 days
  Median survival time (time to half death): 21.000 days
  day when death occurs compared with the control group: no significant difference
  time to half death compared with the control group (significance): does not have a significant difference
  longest lifespan, days longer than that of the control group: 4 days
  time to half death longer than in the control group: 1 days
Day 0, 10 nM
  Number of remaining nematodes: 26
Day 1, 10 nM
  Number of remaining nematodes: 26
Day 2, 10 nM
  Number of remaining nematodes: 26
Day 3, 10 nM
  Number of remaining nematodes: 26
Day 4, 10 nM
  Number of remaining nematodes: 26
Day 5, 10 nM
  Number of remaining nematodes: 26
Day 6, 10 nM
  Number of remaining nematodes: 26
Day 7, 10 nM
  Number of remaining nematodes: 26
Day 8, 10 nM
  Number of remaining nematodes: 26
Day 9, 10 nM
  Number of remaining nematodes: 26
Day 10, 10 nM
  Number of remaining nematodes: 26
Day 11, 10 nM
  Number of remaining nematodes: 25
Day 12, 10 nM
  Number of remaining nematodes: 23
Day 13, 10 nM
  Number of remaining nematodes: 23
Day 14, 10 nM
  Number of remaining nematodes: 22
Day 15, 10 nM
  Number of remaining nematodes: 21
Day 16, 10 nM
  Number of remaining nematodes: 21
Day 17, 10 nM
  Number of remaining nematodes: 20
Day 18, 10 nM
  Number of remaining nematodes: 18
Day 19, 10 nM
  Number of remaining nematodes: 16
Day 20, 10 nM
  Number of remaining nematodes: 14
Day 21, 10 nM
  Number of remaining nematodes: 13
Day 22, 10 nM
  Number of remaining nematodes: 11
Day 23, 10 nM
  Number of remaining nematodes: 9
Day 24, 10 nM
  Number of remaining nematodes: 9
Day 25, 10 nM
  Number of remaining nematodes: 7
Day 26, 10 nM
  Number of remaining nematodes: 7
Day 27, 10 nM
  Number of remaining nematodes: 5
Day 28, 10 nM
  Number of remaining nematodes: 3
Day 29, 10 nM
  Number of remaining nematodes: 2
Day 30, 10 nM
  Number of remaining nematodes: 1
Day 31, 10 nM
  Number of remaining nematodes: 1
Day 32, 10 nM
  Number of remaining nematodes: 1
Day 33, 10 nM
  Number of remaining nematodes: 0
Day 34, 10 nM
  Number of remaining nematodes: 0
Day 35, 10 nM
  Number of remaining nematodes: 0
Day 36, 10 nM
  Number of remaining nematodes: 0
Day 37, 10 nM
  Number of remaining nematodes: 0
Day 38, 10 nM
  Number of remaining nematodes: 0

## TTKFAA [WD3]
  longest lifespan of the nematodes: 33 days
  Median survival time (time to half death): 21.000 days
  day when death occurs compared with the control group: no significant difference
  time to half death compared with the control group (significance): does not have a significant difference
  longest lifespan, days longer than that of the control group: 5 days
  time to half death longer than in the control group: 1 days
Day 0, 10 nM
  Number of remaining nematodes: 28
Day 1, 10 nM
  Number of remaining nematodes: 28
Day 2, 10 nM
  Number of remaining nematodes: 28
Day 3, 10 nM
  Number of remaining nematodes: 28
Day 4, 10 nM
  Number of remaining nematodes: 28
Day 5, 10 nM
  Number of remaining nematodes: 28
Day 6, 10 nM
  Number of remaining nematodes: 28
Day 7, 10 nM
  Number of remaining nematodes: 28
Day 8, 10 nM
  Number of remaining nematodes: 28
Day 9, 10 nM
  Number of remaining nematodes: 28
Day 10, 10 nM
  Number of remaining nematodes: 28
Day 11, 10 nM
  Number of remaining nematodes: 27
Day 12, 10 nM
  Number of remaining nematodes: 27
Day 13, 10 nM
  Number of remaining nematodes: 27
Day 14, 10 nM
  Number of remaining nematodes: 22
Day 15, 10 nM
  Number of remaining nematodes: 20
Day 16, 10 nM
  Number of remaining nematodes: 20
Day 17, 10 nM
  Number of remaining nematodes: 20
Day 18, 10 nM
  Number of remaining nematodes: 20
Day 19, 10 nM
  Number of remaining nematodes: 17
Day 20, 10 nM
  Number of remaining nematodes: 15
Day 21, 10 nM
  Number of remaining nematodes: 14
Day 22, 10 nM
  Number of remaining nematodes: 11
Day 23, 10 nM
  Number of remaining nematodes: 10
Day 24, 10 nM
  Number of remaining nematodes: 9
Day 25, 10 nM
  Number of remaining nematodes: 6
Day 26, 10 nM
  Number of remaining nematodes: 6
Day 27, 10 nM
  Number of remaining nematodes: 5
Day 28, 10 nM
  Number of remaining nematodes: 4
Day 29, 10 nM
  Number of remaining nematodes: 2
Day 30, 10 nM
  Number of remaining nematodes: 1
Day 31, 10 nM
  Number of remaining nematodes: 1
Day 32, 10 nM
  Number of remaining nematodes: 1
Day 33, 10 nM
  Number of remaining nematodes: 1
Day 34, 10 nM
  Number of remaining nematodes: 0
Day 35, 10 nM
  Number of remaining nematodes: 0
Day 36, 10 nM
  Number of remaining nematodes: 0
Day 37, 10 nM
  Number of remaining nematodes: 0
Day 38, 10 nM
  Number of remaining nematodes: 0

## PPTTKFAA [WD1]
  longest lifespan of the nematodes: 31 days
  Median survival time (time to half death): 21.000 days
  day when death occurs compared with the control group: no significant difference
  time to half death compared with the control group (significance): does not have a significant difference
  longest lifespan, days longer than that of the control group: 3 days
  time to half death longer than in the control group: 1 days
Day 0, 10 nM
  Number of remaining nematodes: 29
Day 1, 10 nM
  Number of remaining nematodes: 29
Day 2, 10 nM
  Number of remaining nematodes: 29
Day 3, 10 nM
  Number of remaining nematodes: 29
Day 4, 10 nM
  Number of remaining nematodes: 29
Day 5, 10 nM
  Number of remaining nematodes: 29
Day 6, 10 nM
  Number of remaining nematodes: 29
Day 7, 10 nM
  Number of remaining nematodes: 29
Day 8, 10 nM
  Number of remaining nematodes: 29
Day 9, 10 nM
  Number of remaining nematodes: 29
Day 10, 10 nM
  Number of remaining nematodes: 28
Day 11, 10 nM
  Number of remaining nematodes: 27
Day 12, 10 nM
  Number of remaining nematodes: 24
Day 13, 10 nM
  Number of remaining nematodes: 24
Day 14, 10 nM
  Number of remaining nematodes: 22
Day 15, 10 nM
  Number of remaining nematodes: 20
Day 16, 10 nM
  Number of remaining nematodes: 20
Day 17, 10 nM
  Number of remaining nematodes: 19
Day 18, 10 nM
  Number of remaining nematodes: 19
Day 19, 10 nM
  Number of remaining nematodes: 16
Day 20, 10 nM
  Number of remaining nematodes: 15
Day 21, 10 nM
  Number of remaining nematodes: 14
Day 22, 10 nM
  Number of remaining nematodes: 12
Day 23, 10 nM
  Number of remaining nematodes: 10
Day 24, 10 nM
  Number of remaining nematodes: 9
Day 25, 10 nM
  Number of remaining nematodes: 8
Day 26, 10 nM
  Number of remaining nematodes: 6
Day 27, 10 nM
  Number of remaining nematodes: 5
Day 28, 10 nM
  Number of remaining nematodes: 4
Day 29, 10 nM
  Number of remaining nematodes: 1
Day 30, 10 nM
  Number of remaining nematodes: 1
Day 31, 10 nM
  Number of remaining nematodes: 1
Day 32, 10 nM
  Number of remaining nematodes: 0
Day 33, 10 nM
  Number of remaining nematodes: 0
Day 34, 10 nM
  Number of remaining nematodes: 0
Day 35, 10 nM
  Number of remaining nematodes: 0
Day 36, 10 nM
  Number of remaining nematodes: 0
Day 37, 10 nM
  Number of remaining nematodes: 0
Day 38, 10 nM
  Number of remaining nematodes: 0
